Data as given in patent US12532889B2, “Herbicidal compositions comprising glufosinate” (BASF SE, priority 2023, dated 2026).

System: SETVE (Setaria verticillata)
Test: Post-emergence application in field trials (Example A)
Type: in vivo
Conditions: 42 DAT, growth stage 21-23, height 8-16 cm
Method in brief: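 Weeds in field plots (natural infestation or seeded) are treated after emergence. Damage is then assessed at set days after treatment relative to untreated plants, scored 0–100%. Mixture values are compared with Colby-expected additive activity E.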

Row | Structure (SMILES) | % Herbicidal activity (B-6 252 g ai/ha) [%] | % herbicidal activity (B-6 252 g ai/ha) [%] | % Herbicidal activity (A-1 12.5 g ai/ha) [%] | % herbicidal activity (A-1 18 g ai/ha) [%]
1 | CP(=O)(O)CC[C@H](N)C(=O)O.N [B-6, glufosinate-P-ammonium] | 60 | 35 |  | 
2 | CCOC(=O)COc1ccccc1Oc1nc(-n2c(=O)cc(C(F)(F)F)n(C)c2=O)c(F)cc1Cl [A-1, ethyl 2-[2-[[3-chloro-5-fluoro-6-[3-methyl-2,6-dioxo-4-(trifluoromethyl)pyrimidin-1-yl]-2-pyridyl]oxy]phenoxy]acetate] |  |  | 60 | 50
